Assay [1] deals with HT-1080. Briefly: Inhibition of RSL3-induced ferroptosis in human HT-1080 cells assessed as cell viability incubated for 24 hrs by CCK8 assay. In kind it is functional, cell-based. The following applies: for EC50: HT-1080, 24 h.
Assay [2] is described as follows: Antioxidant activity assessed as DPPH radical scavenging activity at 10 uM incubated for 30 mins by absorbance based assay. In kind it is functional. (DPPH is a stable violet radical that fades when it is reduced.)
Assay [3] relates to HT-1080. Briefly: Inhibition of RSL3-induced ferroptosis in human HT-1080 cells assessed as cell viability at 0.5 uM incubated for 24 hrs by CCK8 assay. The assay is classed as functional, cell-based. Background: Formazan colour is commonly taken as a measure of viable cells.

Active and inactive are the calls of the source. The calls are words filed in the database; no cut-off is given here.

The term EC50 denotes the concentration needed to bring the measured effect to its halfway point. Take `Nc1c(O)cccc1-c1nc2cc(Cl)c(Cl)cc2[nH]1`: the EC50 in the assay with HT-1080 [1] was determined as 293 nM.

For `Nc1c(O)cccc1C(=O)N/N=C/c1ccccc1`, the EC50 in the assay with HT-1080 [1] turned out to be 274 nM.

In the case of `NNC(=O)c1cccc(O)c1N`, in the assay with HT-1080 [1], the EC50 is greater than 1000 nM.

For the molecule `CCOC(=O)c1ccc(NC2CCCCC2)c(N)c1`, in the assay on HT-1080 [1], the EC50 stood at 203 nM.

In the case of `CSc1nnc(-c2cccc(O)c2N)o1`, the concentration for a half-maximal effect (EC50) with HT-1080 [1] turned out to be 99.2 nM.

Take `Nc1c(O)cccc1-c1nc2ccccc2[nH]1`: in the assay on HT-1080 [1], the EC50 is 263 nM.

In the case of `Nc1c(O)cccc1-c1nnc(SCc2ccccc2)o1`, the EC50 in the assay on HT-1080 [1] stood at 238 nM.

Consider `CCCCOC(=O)c1cccc(O)c1N`, for which, in the assay with HT-1080 [1], the EC50 turned out to be 385 nM. For the same molecule, in assay [2], the result was Active. In addition, in the assay with HT-1080 [3], the inhibition result is “Active”.

Turning to `Nc1c(O)cccc1C(=O)N/N=C/c1ccccn1`, the EC50 in the assay with HT-1080 [1] came to 191 nM.

On to `CCOC(=O)c1cccc(O)c1N`, for which, in the assay on HT-1080 [1], the inhibition result was “Dose-Dependent Effect” and the EC50 amounted to 127 nM.

Take `Nc1c(O)cccc1C(=O)N/N=C/c1ccc[nH]1`: the EC50 with HT-1080 [1] amounted to 343 nM.

As for `COc1ccc(CSc2nnc(-c3cccc(O)c3N)o2)cc1`, the EC50 with HT-1080 [1] came out at 177 nM.

Turning to `N#Cc1ccc(CSc2nnc(-c3cccc(O)c3N)o2)cc1`, the EC50 with HT-1080 [1] worked out at 528 nM.

With `Nc1c(O)cccc1C(=O)N/N=C/c1ccc([N+](=O)[O-])cc1`, in the assay on HT-1080 [1], the EC50 came to 649 nM.

These data come from ChEMBL document CHEMBL5506073, “Discovery of Novel Ortho-Aminophenol Derivatives Targeting Lipid Peroxidation with Potent Antiferroptotic Activities” (J Med Chem, 2024).
